These are literature values, as cited in EP3305282A2, “COMPOSITION OF PRANLUKAST-CONTAINING SOLID PREPARATION WITH IMPROVED BIOAVAILABILITY AND METHOD FOR PREPARING SAME” (Sama Pharm Co., Ltd., priority 2015, dated 2016).

For this data set the following is noted: pranlukast drug substance, BCS Class II.

Take `O=C(Nc1cccc2c(=O)cc(-c3nnn[nH]3)oc12)c1ccc(OCCCCc2ccccc2)cc1` [Pranlukast, 4-oxo-8-[4-(4-phenylbutoxy)benzoylamino]-2-(tetrazol-5-yl)-4H-1-benzopyran hemihydrate]: the solubility is 1.2 µg/mL.

Usually solubility stands for the concentration that dissolves in the medium under given conditions.
